Source: patent publication US7371730B2, “Crystals of glucopyranosyloxybenzyl benzene derivative” (Kissei Pharmaceutical Co., Ltd., priority 2002, dated 2008)

Test: Stability test (storage; HPLC residual percentage and X-ray powder diffraction)
Assay type: physicochemical
Settings: storage 40° C./75% RH, 2 months, stopper tightly, and 60° C.
Description: Stability tests were carried out under the following conditions for crystalline forms α and β. Residual percentages of test substances were determined by HPLC, and changes in crystalline form were examined by X-ray powder diffraction analysis.
• detection; 225 nm • column; Inertsil ODS-3 • column temperature; 30° C. • mobile phase; 0.02 mol/L phosphate buffer (pH 3.0): acetonitrile=58:42→30:70 • flow rate; 1.0 mL/min. Storage conditions: • 1) 40° C./75% RH, 2 months, stopper tightly • 2) 60° C., 2 months, stopper tightly

CCOC(=O)OC[C@H]1O[C@@H](Oc2ccccc2Cc2ccc(OC)cc2)[C@H](O)[C@@H](O)[C@@H]1O [crystalline form α, 2-(4-methoxybenzyl)phenyl 6-O-ethoxycarbonyl-β-D-glucopyranoside]
changes in crystalline form (X-ray powder diffraction analysis): no change | residual percentage of test substance (HPLC): no change
